We go through three compounds from patent publication US20040092485A1, “Ascorbic acid 2-phosphate metal salt with low calcium content” (priority 2001, published 2004).

Counter-ions that a name gives are not always drawn.

Series [1] is described as follows: In-solution Stability Test 2 (clouding by eye in citrate/citric acid, glycerol·1,3-butylene glycol·ethanol, water solution). Conditions: for In-solution Stability Test 2 50° C.: left standing at 50° C. for 10 days; for In-solution Stability Test 2 50° C. / In-solution Stability Test 2 Room Temperature (20° C.): 2 g sample, 15 g mixed solution, clouding state observed by eye; for In-solution Stability Test 2 Room Temperature (20° C.): left standing at room temperature (20° C.) for 1 month. More on the design: key to In-solution Stability Test 2 Room Temperature (20° C.) / In-solution Stability Test 2 50° C.: A: No clouding; B: Clouded; Distinguished Clouding. Type of series: physicochemical. The method, then: In-solution Stability Test 2
Into a 200 ml-volume Erlenmeyer flask, 2 g of a sample (APM), 0.4 g of sodium citrate dihydrate and 0.05 g of citric acid were charged. Thereto, 15 g of glycerol·1,3-butylene glycol·ethanol mixed solution (volume ratio: 3:5:8) was charged and the resulting solution was stirred for 30 minutes. Thereto, 82 g of pure water was added and further stirred for 2 hours. After filtering this solution through a filter, a half amount was left standing at room temperature (20° C.) for 1 month and the remaining half amount was left standing at 50° C. for 10 days.

A short description of series [2]: In-solution Stability Test 1 (clouding by eye in citrate/citric acid, glycerol·1,3-butylene glycol·ethanol, water solution). Format: physicochemical. Details: key to In-solution Stability Test 1 Room Temperature (20° C.) / In-solution Stability Test 1 50° C.: A: No clouding; B: Clouded; Distinguished Clouding. Conditions: for In-solution Stability Test 1 50° C.: left standing at 50° C. for 10 days; for In-solution Stability Test 1 50° C. / In-solution Stability Test 1 Room Temperature (20° C.): 2 g sample, 16 g mixed solution, clouding state observed by eye; for In-solution Stability Test 1 Room Temperature (20° C.): left standing at room temperature (20° C.) for 1 month. The procedure:
In-solution Stability Test 1
Into a 200 ml-volume Erlenmeyer flask, 2 g of a sample (APM), 0.4 g of sodium citrate dihydrate and 0.05 g of citric acid were charged. Thereto, 16 g of glycerol·1,3-butylene glycol·ethanol mixed solution (volume ratio: 3:5:8) was added and the resulting solution was stirred for 30 minutes. Thereto, 82 g of pure water was added and the resulting solution was further stirred for 2 hours. After filtering this solution through a filter, a half amount was left standing at room temperature (20° C.) for 1 month and the remaining half amount was left standing at 50° C. for 10 days.

[3] abbreviates: temperature not specified in the sentence (whole test).

For `O=C1O[C@H]([C@@H](O)CO)C(O)=C1OP(=O)([O-])[O-].[Mg+2]` [Comparative Example 2, L-ascorbic acid 2-phosphate magnesium salt], in series [1] (50° C.), the “clouding in in-solution stability test 2” value was “distinguished clouding was observed”. For the same compound, in series [1], the “In-solution Stability Test 2 50° C.” value was “C” and the “In-solution Stability Test 2 Room Temperature (20° C.)” value was “C”. Also, the “clouding in in-solution stability test 2” value in series [1] (room temperature (20° C.)) is “distinguished clouding was observed”. In addition, the “clouding in in-solution stability test 1” value in series [2] (50° C.) is reported as “more distinguished clouding was observed”. Also, in series [2], the “In-solution Stability Test 1 50° C.” value is on record as “C” and the “In-solution Stability Test 1 Room Temperature (20° C.)” value is “B”. Moreover, the “clouding in in-solution stability test 1” value in series [2] (room temperature (20° C.)) was “clouding was observed”.

For `O=C1O[C@H]([C@@H](O)CO)C(O)=C1OP(=O)([O-])[O-].[Mg+2]` [Comparative Example 1, L-ascorbic acid 2-phosphate magnesium salt], in series [1] (50° C.), the “clouding in in-solution stability test 2” value is “more distinguished clouding was observed”. In series [1], the “In-solution Stability Test 2 50° C.” value is “C” and the “In-solution Stability Test 2 Room Temperature (20° C.)” value is given as “B”. Moreover, in series [1] (room temperature (20° C.)), the “clouding in in-solution stability test 2” value was “clouding was observed”. Besides, the “clouding in in-solution stability test 1” value in series [2] (50° C.) was “more distinguished clouding was observed”. Also, in series [2], the “In-solution Stability Test 1 50° C.” value is recorded as “C” and the “In-solution Stability Test 1 Room Temperature (20° C.)” value is “B”. For the same compound, in series [2] (room temperature (20° C.)), the “clouding in in-solution stability test 1” value is reported as “clouding was observed”.

Regarding `O=C1O[C@H]([C@@H](O)CO)C(O)=C1OP(=O)(O)O` [Example 1, L-ascorbic acid 2-phosphate magnesium salt], in series [1], the “In-solution Stability Test 2 50° C.” value was “A” and the “In-solution Stability Test 2 Room Temperature (20° C.)” value was “A”. The “clouding in in-solution stability test 2” value in series [1] (setting [3]) is reported as “clouding was not observed”. Besides, in series [2], the “In-solution Stability Test 1 50° C.” value is “A” and the “In-solution Stability Test 1 Room Temperature (20° C.)” value is “A”. For the same compound, in series [2] (setting [3]), the “clouding in in-solution stability test 1” value was “clouding was not observed”.
